Laboratory results: patent publication US11523610B2, “Regulating plant growth using a diapocarotenoid” (King Abdullah University of Science and Technology, priority 2018, dated 2022)

Experiments:
[1] = tested on: Arabidopsis seedlings (anchor roots after RAM excision); assay: ANR formation after root apical meristem excision (ANR-RE); assay type: in vivo
Source text: (§1) ANRs were counted in seedlings vertically grown on half strength MS (with 0.5% sucrose +1% agar, 0.5 g/L MES, pH 5.7) media 8 days post-stratification (dps) using a dissection microscope. To investigate ANR formation after root apical meristems (RAM) excision (ANR-RE), RAM of seedlings were excised using sterile scalpels at 5 dps and then grown for another 3 days prior to counting the number of emerged ANRs. RAM of seedlings were excised at 8 dps and then grown for another 3 days prior to counting the number of emerged LRs. For determining the effect of anchorene on lateral roots, the number of emerged lateral roots were counted using a dissection microscope at 8 dps. For primary root length measurements, seedlings were measured using the publicly available ImageJ software (downloaded from rsbweb.nih.gov/ij/) after taking digital photographs. For adventitious root assay, the number of emerged adventitious roots per plant were counted after 5 days of treatment on plates with or without anchorene.
ANR formation under carotenoid-deficient conditions was monitored to determine the role of endogenous carotenoids in ANR development. […] Therefore, ANR formation was monitored after RAM excision (ANR-RE) to stimulate ANR development. ANR measurements were used as an indicator of ANR formation capacity under different conditions. […] Norflurazon (NF) and 2-(4-chlorophenylthio)-triethylamine hydrochloride (CPTA), which block phytoene desaturation and lycopene cyclization, respectively were tested (FIG. 6A). The effect of D15, an inhibitor of CCDs was also investigated. Application of D15 to Arabidopsis seedlings is known to lead to an increase in carotenoid levels.

pDR5::LUC seedlings = assay: Luciferase assay in pDR5::LUC auxin marker line; assay type: in vivo, Arabidopsis; conditions: 1 μM NF, 20 μM anchorene
Method: Luciferase activity was assayed as previously described. Briefly, 1 mL of 5 mM Potassium Luciferin (Gold Biotechnology®) dissolved in water was directly applied to pDR5:LUC seedlings grown vertically on treated half strength MS plates. The luciferin solution was allowed to dry for 5-10 minutes in the dark, at room temperature. Seedlings were then imaged using a Lumazone™ CA automated Chemiluminescence system. Seven minute exposure times were used.
A pDR5::LUC line, which marks LR prebranch sites, was used to track ANR development. […] ANR primordia initiation was observed as early as 3 dps, in anchorene treated pDR5::LUC and 158 pDR5rev::GFP seedling (FIGS. 5A-C).

pDR5rev::GFP seedlings = assay: Confocal microscopy of pDR5rev::GFP auxin marker line; assay type: in vivo, Arabidopsis; conditions: single compound, 20 μM anchorene, 1 μM NF
Source text: To examine pDR5Rev::GFP fluorescence at the collet region, live seedlings were directly used for laser scanning confocal microscopy (Zeiss LSM 510 microscope) examination.
For fluorescence intensity quantification of pDR5Rev::GFP and pPIN3::PIN3-GFP marker lines, ImageJ software (rsbweb.nih.gov/ij/) was used after taking confocal microscopy photos. All calculations are background subtracted.

[2] = LC-MS quantification of anchorene in Arabidopsis tissues
Method: About 30 mg (30-40 mg) of freeze-dried and ground Arabidopsis seedlings tissues were extracted using 1 mL of acetonitrile with anti-oxidant [0.1% butylated hydroxytoluene (BHT)] for 15 min in an ultrasonic bath (Branson® 5510EDTH, 25° C., 15 min), followed by centrifugation for 8 min at 13000 rpm at 4° C. The collected supernatant was dried using a concentrator (Labconco RapidVap® System). The extract was derivatized (SCHEME 3) with 50 μL of derivatization solution containing 5 mg/mL derivatization reagent (N^2,N^2,N^4,N^4-tetraethyl-6-hydrazineyl-1,3,5-triazine-2,4-diamine) (Chemspace) and 1% formic acid in methanol at 37° C. for 15 min. Then the sample solution was diluted to 150 μL with 1% formic acid in methanol and filtered by using 0.22 μm filter before LC-MS analysis.
The quantitative analysis of derivative anchorene were carried out on HPLC-Q-Trap MS/MS. Chromatographic separation was achieved on an Acquity UPLC CSH C18 column (50×2.1 mm; 1.7 μm; Waters) using a mobile phase consisting of water: acetonitrile (95:5, v:v, A) and pure acetonitrile (B), both containing 0.1% formic acid. A gradient was applied, starting with 10% B and increasing to 40% B over 5 min. Then 15% B was increased
within 10 min followed by an increase of 45% B over 2 min. And then 100% B was maintained for 10 min. To equilibrate the column before the next run, the mobile phase was adjusted back to 10% B in 1 min and this concentration was maintained for 8 min prior to the next sample injection. A flow rate of 0.15 mL/min and a column temperature of 40° C. were maintained throughout the run. The eluent of the column was introduced to the mass spectrometer using turbo spray ion source in positive mode. The injection volume was 10 μL. The conditions of the mass spectrometer were set as following: curtain gas: 30; ion spray voltage: 5 kV; temperature: 400° C.; ion source gas 1: 30; ion source gas 2: 40; declustering potential, 55; entrance potential: 10; collision energy: 25; collision cell exit potential: 10. […]

[3] = tested on: Arabidopsis root growth (Col-0 seedlings); assay: Primary root length of Arabidopsis seedlings on treated half MS agar plates; assay type: in vivo; conditions: 25 μM, 7 dps
Method: β-cyclocitral, β-ionone and D′orenone (β-Apo-13-caroteneone) (FIG. 1A) were purchased from Buchem (Netherlands). Diapo1, Diapo2, Diapo3, Diapo4, Diapo5, and Diapo6 (FIG. 1B) were synthesized by Buchem (Netherlands). Diapo3 was also synthesized together with D6-anchorene and anchorene derivatives according to the protocol of SCHEME 2. Apocarotenoids and diapocarotenoids were dissolved in acetone to make stock solutions (10 mM). For the screening experiments, each chemical was diluted in half strength Murashige and Skoog (MS) media (with 0.5% sucrose+1% agar, 0.5 g/L MES, pH 5.7) to reach indicated concentrations of 25 μM and 5 μM. A stock solution of 10 mM GR24 (Chiralix, Netherlands) was also made by diluting GR24 in acetone. Stock solutions of D15 (100 mM), Norflurazone (5 mM), and CPTA (50 mM) were made in dimethyl sulfoxide (DMSO). For experiments, these compounds were diluted in concentrations of 125 μM D15, 500 nM Norflurazone, or 100 μM CPTA, respectively. 1-Naphthaleneacetic acid (NAA) and N-1-Naphthylphthalamic Acid (NPA) were purchased from Sigma-Aldrich (Germany) and dissolved in water to make 1 mM stock solutions. For NAA and NPA treatments, media containing 0.1 μM NAA and 1 μM NPA were used. Unless otherwise noted, all commercially available compounds were used as provided without further purification.
Sterilized Col-0 and mutants seeds were kept at 4° C. in darkness for 3 days to stimulate seed germination, and then sown on half strength MSO plates (with 0.5% sucrose +1% agar, 0.5g/L MES, pH 5.7) supplemented with the indicated chemicals as described below or in the Figures. Plates were vertically grown in PERCIVAL® growth chambers under long day (16 h light/8 h dark, 22° C., 60% relative humidity, light density: 4000 LUX) LED white light [HYPERIKON® 16 W LED Light Bulb A21, 16 W (100 W Equivalent), CRI92, 1620 Lumens, 4000K (Daylight Glow)] conditions. Light fluorescence rates were measured using a digital LUX meter ([…]® 5025).
as §1
Six previously identified or predicted diapocarotenoids with chain lengths ranging from C9 to C15 (Diapo1-6) (FIG. 1B) and 3 apocarotenoids (FIG. 1C) were selected to identify new carotenoid-derived signals involved in root development). These compounds were selected because they are available and stable at ambient conditions. Diapo1 (C9) is the expected product formed upon cleavage of all-trans-β-apo-10′ carotenal. Diapo2 (C10) results from cleaving the C7, C8 and C15, C15′ double bonds in different carotenoids and is produced by cyanobacterial retinal-forming enzymes from Cm-apocarotenoids. Diapo3 (C10) is a structural isomer of Diapo2 and a predicted cleavage product that can be formed by cutting the C11, C12 and C11′, C12′ bonds in almost all plant carotenoids (FIGS. 1A, 1B and 17). Diapo4 (C12) results from cleaving the C7, C8 and C13′, C14′ bonds in many carotenoids, and is formed by the CCD1 from apo-10′-lycopenal.

[4] = tested on: Arabidopsis seedlings (anchor roots); assay: Anchor root (ANR) emergence/formation in seedlings without RAM excision; assay type: in vivo; conditions: for activity in promoting ANR formation: anchorene isomer and derivatives, concentrations as indicated in FIGS. 3G-H
Method: Sterilized Col-0 and mutants seeds were kept at 4° C. in darkness for 3 days to stimulate seed germination, and then sown on half strength MSO plates (with 0.5% sucrose +1% agar, 0.5g/L MES, pH 5.7) supplemented with the indicated chemicals as described below or in the Figures. Plates were vertically grown in PERCIVAL® growth chambers under long day (16 h light/8 h dark, 22° C., 60% relative humidity, light density: 4000 LUX) LED white light [HYPERIKON® 16 W LED Light Bulb A21, 16 W (100 W Equivalent), CRI92, 1620 Lumens, 4000K (Daylight Glow)] conditions. Light fluorescence rates were measured using a digital LUX meter (PEAKTECH® 5025).
as §1
Prior to the anchor root (ANR) measurements, seeds from 10 ecotypes (Po-0, Is-0, Wu-0, Col-0, Cvi-0, Hi-0, Ove-0, Sav-0, Ler and Kin-0) were harvested from plants grown in long-day photoperiod conditions (16h light/8 h darkness, 22° C., 60% humidity). Seeds of all 10 ecotypes were surfaced sterilized and incubated in sterile water at 4° C. for 8 days, for uniform germination. Natural ANR emergence and ANRC was measured as described above (Anchor root assays) for each ecotype. 20 μM anchorene was used to test the responses of the Po-0 and Is-0 ecotypes to anchorene.
Excision of the root apical meristems (RAM) triggers ANR formation (FIGS. 3C-D). […] About 9% of control Col-0 seedlings developed ANRs under normal conditions, while approximately 50% formed ANRs upon RAM excision (FIGS. 4B-C). […] Higher anchorene concentrations (10 and 20 μM) enhanced this ratio to 97% and 100%, respectively (FIGS. 4B-C). There was also an increase in the number of seedlings that developed two ANRs from 0% in the untreated control to approximately 80% upon application of 20 μM anchorene (FIGS. 4B-C). Using a wide range of concentrations, a dose-response curve was established in the presence and absence of RAM excision. […] Thus, the promotion of ANRs is not caused by inhibiting primary root growth.

[5] = 1 μM NF, 100 μM CPTA, 150 μM D15, RAM cut at 5 DAG, grown 3 more days

## O=C(O)c1ccccc1C(=O)Nc1cccc2ccccc12 [NPA, N-1-Naphthylphthalamic Acid]
[1]; 0.1 μM NAA, 1 μM NPA
  ANR-RE: completely blocked

## CNc1cnn(-c2cccc(C(F)(F)F)c2)c(=O)c1Cl [NF, Norflurazon]
[1]; [5]
  ANR-RE: strongly reduced
pDR5::LUC seedlings
  LUC signal in the collet: clear LUC signal was detected
pDR5rev::GFP seedlings
  GFP signal at the collet / ANR primordia: No significant reduction
[2]; 24 hours NF treatment, 2 μM NF
  anchorene content of whole seedlings after NF treatment: decreases
[2]; continuous NF treatment
  anchorene content of whole seedlings after NF treatment: greatly decreases

## CC(/C=C/C=O)=C\C=C\C=O [Diapo1, 10,14′-diapocarotene-10,14′-dial]
[3]
  inhibition of primary root growth: weak inhibition

## CC1=C[C@H](O/C=C2/C(=O)O[C@@H]3c4ccccc4C[C@H]23)OC1=O [GR24]
[1]; 1 μM GR24
  ANR formation (ANR-RE): inhibited ANR formation

## CCN(CC)CCSc1ccc(Cl)cc1.Cl [CPTA, 2-(4-chlorophenylthio)-triethylamine hydrochloride]
[1]; [5]
  ANR-RE: strongly reduced

## CCOC(=O)/C(C)=C/C=C/C=C(\C)C(=O)OCC [AR di-ethyl ester, diethyl (2E,4E,6E)-2,7-dimethylocta-2,4,6-trienedioate]
[4]
  activity in promoting ANR formation: inactivity

## C\C(=C/C=C/C=C(\C)C(=O)O)C(=O)O [AR di-acid, (2E,4E,6E)-2,7-dimethylocta-2,4,6-trienedioic acid]
[4]
  activity in promoting ANR formation: inactivity

## C\C(=C/C=C/C=C(\C)CO)CO [AR di-alcohol, (2E,4E,6E)-2,7-dimethylocta-2,4,6-triene-1,8-diol]
[4]
  activity in promoting ANR formation: inactivity

## C\C(C=O)=C/C(C)=C/C=C/C=C/C=O [Diapo4, 8,14′-diapocarotene-8,14′-dial]
[3]
  inhibition of primary root growth: weak inhibition

## O=C(O)Cc1cccc2ccccc12 [NAA, 1-Naphthaleneacetic acid]
[1]; 0.1 μM NAA, 1 μM NPA
  ANR-RE: greatly increased

## C\C(C=O)=C/C=C/C=C/C=C(C)/C=C(\C)C=O [Diapo5, 8,12′-diapocarotene-8,12′-dial]
[3]
  reduction in primary root growth: approximately 80%

## C\C(C=O)=C/C(C)=C/C=C/C=O [Diapo2, 8,15-diapocarotene-8,15-dial]
[3]
  reduction in primary root growth: approximately 80%
[4]; 25 μM (FIGS. 3G-H)
  ANR formation: modest increase

## CC1=CC(=O)CC(C)(C)[C@@]1(O)/C=C/C(C)=C\C(=O)O [ABA, abscisic acid]
[1]; 0.1 and 0.5 μM ABA
  ANR-RE: did not impact
